Test results as given in US20100298141A1, “SUBSTITUTED PYRIDINE N-OXIDE HERBICIDES” (E. I. DU PONT DE NEMOURS AND COMPANY, priority 2007, published 2010).

Experiments:
kochia = test: Test F preemergence test; type: in vivo, Kochia scoparia; conditions: scale 0 to 100
Excerpt: (§1) Seeds of plant species selected from bermudagrass (Cynodon dactylon), Surinam grass (Brachiaria decumbens), large crabgrass (Digitaria sanguinalis), green foxtail (Setaria viridis), goosegrass (Eleusine indica), johnsongrass (Sorghum halepense), kochia (Kochia scoparia), pitted morningglory (Ipomoea lacunosa), purple nutsedge (Cyperus rotundus), common ragweed (Ambrosia elation), mustard (Brassica nigra), guineagrass (Panicum maximum), […] (Paspalum dilatatum), barnyardgrass (Echinochloa crus-galli), southern sandbur (Cenchrus echinatus), common sowthistle (Sonchus oleraceous), prickly […] spinosa), Italian ryegrass (Lolium multiflorum), common purslane (Portulaca oleracea), broadleaf signalgrass (Brachiaria platyphylla), common groundsel (Senecio vulgaris), common chickweed (Stellaria media), Virginia dayflower (Commelina virginica), annual bluegrass (Poa annua), naked crabgrass (Digitaria nuda), […] cochinchinensis), quackgrass (Elytrigia repens), Canada horseweed (Conyza canadensis), field bindweed (Convolvulus arvensis), […] (Bidens bipinnata), common mallow (Malva sylvestris), Russian thistle (Salsola kali), and sugarcane (Saccharum officinarum) were planted and treated preemergence with test chemicals formulated in a non-phytotoxic solvent mixture which included a surfactant. At a different time, sugarcane was treated with postemergence applications of some of the test chemicals formulated in the same manner. Plants were approximately 3- to 4-leaf stage for the postemergence treatments. Treated plants and controls were maintained in a greenhouse for 14 to 21 days, after which time all species were compared to controls and visually evaluated. […] A dash (-) response means no test result.

goosegrass = test: Test F preemergence test; type: in vivo, Eleusine indica; conditions: scale 0 to 100
Excerpt: as §1

pitted morningglory = test: Test F preemergence test; type: in vivo, Ipomoea lacunosa; conditions: scale 0 to 100
Excerpt: as §1

rice = test: Test C flooded paddy test; type: in vivo, Oryza sativa; conditions: Flood
Summary of the method: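 Test compounds are applied straight into paddy water held 3 cm above the soil surface, with that flood maintained for the whole test. After 13 to 15 days in the greenhouse, each species is scored visually relative to controls.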

bermudagrass = test: Test F preemergence test; type: in vivo, Cynodon dactylon; conditions: scale 0 to 100
Excerpt: as §1

common ragweed = test: Test F preemergence test; type: in vivo, Ambrosia elation; conditions: scale 0 to 100; for Ragweed plant response rating: preemergence; for Plant response rating, Ragweed: Preemergence
Excerpt: as §1

morningglory = test: Test C pre-/postemergence test; type: in vivo, Ipomoea coccinea
Summary of the method: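 Compounds in a non-phytotoxic solvent with surfactant applied preemergence to seeded pots and, at the same time, postemergence to plants 2–18 cm tall (1- to 4-leaf stage). Paddy tests: pots flooded to 3 cm, compound applied into the water, depth held throughout.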

broadleaf signalgrass = test: Test F preemergence test; type: in vivo, Brachiaria platyphylla; conditions: scale 0 to 100; for Signalgrass plant response rating: preemergence; for Plant response rating, Signalgrass: Preemergence
Excerpt: as §1

johnsongrass = test: Test F preemergence test; type: in vivo, Sorghum halepense; conditions: scale 0 to 100
Excerpt: as §1

large crabgrass = test: Test F preemergence test; type: in vivo, Digitaria sanguinalis; conditions: scale 0 to 100
Excerpt: as §1

purple nutsedge = test: Test F preemergence test; type: in vivo, Cyperus rotundus; conditions: scale 0 to 100
Excerpt: as §1

naked crabgrass = test: Test F preemergence test; type: in vivo, Digitaria nuda; conditions: scale 0 to 100
Excerpt: as §1

annual bluegrass = test: Test F preemergence test; type: in vivo, Poa annua; conditions: scale 0 to 100
Excerpt: as §1

Surinam grass = test: Test F preemergence test; type: in vivo, Brachiaria decumbens; conditions: scale 0 to 100; for Surinam Grass plant response rating: preemergence; for Plant response rating, Surinam Grass: Preemergence
Excerpt: as §1

Italian ryegrass = test: Test F preemergence test; type: in vivo, Lolium multiflorum; conditions: scale 0 to 100; for Ryegrass, Italian plant response rating: preemergence; for Plant response rating, Ryegrass, Italian: Preemergence
Excerpt: as §1

SMILES: CCc1cc[n+]([O-])c(S(=O)(=O)Cc2c(C(F)(F)F)nn(C)c2OCC(F)(F)F)c1 [Compound 60]
- Kochia plant response rating (kochia; 62 g ai/ha, Preemergence): 65
- Kochia plant response rating (kochia; 125 g ai/ha, preemergence): 100
- Kochia plant response rating (kochia; 250 g ai/ha, preemergence): 100
- Plant response rating, Kochia (kochia; Preemergence, 31 g ai/ha): 0
- Goosegrass plant response rating (goosegrass; 62 g ai/ha, Preemergence): 80
- Goosegrass plant response rating (goosegrass; 125 g ai/ha, preemergence): 100
- Goosegrass plant response rating (goosegrass; 250 g ai/ha, preemergence): 100
- Plant response rating, Goosegrass (goosegrass; Preemergence, 31 g ai/ha): 80
- Morningglory plant response rating (pitted morningglory; 62 g ai/ha, Preemergence): 0
- Morningglory plant response rating (pitted morningglory; 125 g ai/ha, preemergence): 70
- Morningglory plant response rating (pitted morningglory; 250 g ai/ha, preemergence): 100
- Plant response rating, Morningglory (pitted morningglory; Preemergence, 31 g ai/ha): 0
- Plant response rating, Rice (rice; 62 g ai/ha, scale 0 to 100 (0 no effect, 100 complete control)): 0
- Plant response rating, Rice (rice; 250 g ai/ha, scale 0 to 100, 0 no effect, 100 complete control, 13 to 15 days): 20
- Bermudagrass plant response rating (bermudagrass; 62 g ai/ha, Preemergence): 80
- Bermudagrass plant response rating (bermudagrass; 125 g ai/ha, preemergence): 100
- Bermudagrass plant response rating (bermudagrass; 250 g ai/ha, preemergence): 100
- Plant response rating, Bermudagrass (bermudagrass; Preemergence, 31 g ai/ha): 20
- Ragweed plant response rating (common ragweed; 125 g ai/ha): 75
- Ragweed plant response rating (common ragweed; 250 g ai/ha): 100
- Plant response rating, Ragweed (common ragweed; 62 g ai/ha): 65
- Plant response rating, Ragweed (common ragweed; 31 g ai/ha): 0
- Morningglory plant response rating (morningglory; 62 g ai/ha, Preemergence, scale 0 to 100): 90
- Morningglory plant response rating (morningglory; 125 g ai/ha, preemergence, scale 0 (no effect) to 100 (complete control)): 100
- Plant response rating, Morningglory (morningglory; Preemergence, 31 g ai/ha, scale 0 to 100 (0 no effect, 100 complete control)): 50
- Morningglory plant response rating (morningglory; preemergence, 250 g ai/ha, scale 0 (no effect) to 100 (complete control)): 100
- Signalgrass plant response rating (broadleaf signalgrass; 125 g ai/ha): 75
- Signalgrass plant response rating (broadleaf signalgrass; 250 g ai/ha): 100
- Plant response rating, Signalgrass (broadleaf signalgrass; 62 g ai/ha): 75
- Plant response rating, Signalgrass (broadleaf signalgrass; 31 g ai/ha): 30
- Johnsongrass plant response rating (johnsongrass; 62 g ai/ha, Preemergence): 50
- Johnsongrass plant response rating (johnsongrass; 125 g ai/ha, preemergence): 95
- Johnsongrass plant response rating (johnsongrass; 250 g ai/ha, preemergence): 100
- Plant response rating, Johnsongrass (johnsongrass; Preemergence, 31 g ai/ha): 0
- Crabgrass, Large plant response rating (large crabgrass; 62 g ai/ha, Preemergence): 98
- Crabgrass, Large plant response rating (large crabgrass; 125 g ai/ha, preemergence): 100
- Crabgrass, Large plant response rating (large crabgrass; 250 g ai/ha, preemergence): 100
- Plant response rating, Crabgrass, Large (large crabgrass; Preemergence, 31 g ai/ha): 0
- Purple Nutsedge plant response rating (purple nutsedge; 62 g ai/ha, Preemergence): 50
- Purple Nutsedge plant response rating (purple nutsedge; 125 g ai/ha, preemergence): 80
- Purple Nutsedge plant response rating (purple nutsedge; 250 g ai/ha, preemergence): 90
- Plant response rating, Purple Nutsedge (purple nutsedge; Preemergence, 31 g ai/ha): 0
- Crabgrass, Naked plant response rating (naked crabgrass; 62 g ai/ha, Preemergence): 100
- Crabgrass, Naked plant response rating (naked crabgrass; 125 g ai/ha, preemergence): 100
- Crabgrass, Naked plant response rating (naked crabgrass; 250 g ai/ha, preemergence): 100
- Plant response rating, Crabgrass, Naked (naked crabgrass; Preemergence, 31 g ai/ha): 20
- Bluegrass plant response rating (annual bluegrass; 62 g ai/ha, Preemergence): 50
- Bluegrass plant response rating (annual bluegrass; 125 g ai/ha, preemergence): 90
- Bluegrass plant response rating (annual bluegrass; 250 g ai/ha, preemergence): 100
- Plant response rating, Bluegrass (annual bluegrass; Preemergence, 31 g ai/ha): 35
- Surinam Grass plant response rating (Surinam grass; 125 g ai/ha): 100
- Surinam Grass plant response rating (Surinam grass; 250 g ai/ha): 100
- Plant response rating, Surinam Grass (Surinam grass; 62 g ai/ha): 90
- Plant response rating, Surinam Grass (Surinam grass; 31 g ai/ha): 80
- Ryegrass, Italian plant response rating (Italian ryegrass; 125 g ai/ha): 90
- Ryegrass, Italian plant response rating (Italian ryegrass; 250 g ai/ha): 100
- Plant response rating, Ryegrass, Italian (Italian ryegrass; 62 g ai/ha): 75
- Plant response rating, Ryegrass, Italian (Italian ryegrass; 31 g ai/ha): 75
